Measured values taken from patent US4072760A, “Bronchospasmolytic phenylethanolamines” (Pharmacia AS, priority 1974, dated 1978).
Like-named read-outs stand apart in the source and are kept apart here.

Legend:
[1] = system: β2 -stimulation, lungs guinea pig; assay: Bronchospasmolytic effect (β2 -stimulation), Konzett-Rossler technique in anaesthetized guinea pig lungs; type: in vivo; settings: Cavia porcellus, doses as free base of the racemic compound
[2] = system: β1 -stimulation, heart rate mice; assay: Heart rate increasing effect (β1 -stimulation) in pentobarbital anaesthetized mice; type: in vivo; settings: Mus musculus, iv, dose giving an increase in heart rate of 100 beats/min, as free base
Description: An especially valuable feature of the present invention is that typical and preferred representative of the compounds of the invention show a high bronchial selectivity (ratio of bronchospasmolytic activity to heart rate increasing effect) as compared to existing well-known broncholytics. […] The ratio, heart rate increasing dose ("ED 100") divided by bronchospasmolytic dose (ED 50), is a measure of the degree of selectivity of the bronchospasmolytic action. This ratio was calculated for a number of the compounds of the invention and for some of the most relevant compounds of reference.

[3] = system: β2 -stimulation versus β1 -stimulation; assay: Bronchial selectivity: heart rate increasing dose ("ED 100") divided by bronchospasmolytic dose (ED 50); type: in vivo; settings: heart rate ED 100 (mice, i.v.) / bronchospasmolytic ED 50 (guinea pig, i.v.)
Description: The ratio, heart rate increasing dose ("ED 100") divided by bronchospasmolytic dose (ED 50), is a measure of the degree of selectivity of the bronchospasmolytic action. This ratio was calculated for a number of the compounds of the invention and for some of the most relevant compounds of reference.

[4] = in vivo; settings: mouse
Description: Furthermore the acute toxicity in mice after intraveneous and oral administration is given.

[5] = system: conscious guinea pigs; assay: Bronchospasmolytic dose in conscious guinea pigs, acetylcholine aerosol as spasmogen (Wardell); type: in vivo; settings: pressurized aerosol of 1% acetylcholine, more active than salbutamol
Description: (§1) The effective bronchospasmolytic doses of the two compounds were determined using a pressurized aerosol of a 1% acetylcholine solution as the spasmogen according to the method of […]. Pharmacol Exp. Therap. 1974, 189, 167-184 and the heart rate was determined according to Farmer et al. (Br. J. Pharmac. Chemotherap. 1968, 32, 193-200.

[6] = system: conscious guinea pigs; assay: Heart rate in conscious guinea pigs (Farmer et al.); type: in vivo
Description: as §1

[7] = system: β-stimulation of the skeletal muscles; assay: Tremor-inducing activity (β-stimulation of the skeletal muscles) compared to bronchospasmolytic activity in cats (Bowman and Nott); type: in vivo
Description: For a few of the compounds of the invention, the tremor-inducing activity (β-stimulation of the skeletal muscles) was determined in cats (in accordance with the technique of Bowman, W. C. and Nott, M. W.: Actions of some sympathomimetic bronchodilator and beta-adrenoceptor blocking drugs on contractions of the cat soleus muscle, Brit. J. Pharmac., 1970, 38, 37-49) and compared to the bronchospasmolytic activity in the same species.

[8] = system: dogs; settings: dog, in vivo
Excerpt: (§2) Compounds of the present invention are well tolerated, as appears from the table.

[9] = design: species or system rate; settings: in vivo
Excerpt: as §2

[10] = i.d. = intraduodenally, read-out: β2 -stimulation lungs guinea pig ED 50 i.d.
[11] = iv, read-out: β2 -stimulation lungs guinea pig ED 50 i.v.

SMILES	ED50 [1, 10]	ED50 [1, 11]	ED (increase of 100 beats/min) [2]	Ratio "ED 100"/ED 50 [3]	LD50 ([4]; iv)	LD50 ([4]; po)	broncholytic activity relative to salbutamol [5]	heart rate stimulating effect compared with salbutamol [6]	ratio between bronchospasmolytic dose and tremor-inducing dose, compared with salbutamol [7]	acute intravenous and oral toxicity test: tolerability [8]	two week tolerance test in dogs: tolerability [8]	three month toxicity test: toxic reactions [9]
COc1c(C)cc(CNc2cc(C(O)CNC(C)(C)C)ccc2O)cc1C.Cl (stereo not drawn) [3-(3,5-Dimethyl-4-methoxybenzylamino)-4-hydroxy-α-(tert.butylaminomethyl)benzylalcohol hydrochloride]	3 mg/kg	0.03 mg/kg	0.3 mg/kg	10	20 mg/kg	1500 mg/kg						
COCCOc1ccc(CNc2cc(C(O)CNC(C)(C)C)ccc2O)cc1.Cl (stereo not drawn) [3-[4-(2-Methoxyethoxy)benzylamino]-4-hydroxy-α-(tert.butylaminomethyl)-benzylalcohol hydrochloride]	1 mg/kg	0.01 mg/kg	0.1 mg/kg	10	20 mg/kg	> 1000 mg/kg						
CC(C)(C)NCC(O)c1ccc(O)c(NC(=O)c2ccc(Cl)c(Cl)c2)c1.Cl (stereo not drawn) [3-(3,4-Dichlorobenzamido)-4-hydroxy-α-(tert.butylaminomethyl)benzylalcohol hydrochloride]		0.1 mg/kg			60 mg/kg	> 2000 mg/kg						
CC(C)(C)NCC(O)c1ccc(O)c(NCc2ccc([N+](=O)[O-])cc2)c1.Cl (stereo not drawn) [3-(4-Nitrobenzylamino)-4-hydroxy-α-(tert.butylaminomethyl)-benzylalcohol hydrochloride]	0.5 mg/kg	0.01 mg/kg	0.1 mg/kg	10	60 mg/kg	400 mg/kg						
CC(C)(C)NCC(O)c1ccc(O)c(NCc2ccc(OCC(N)=O)cc2)c1 (stereo not drawn) [3-[4-(carbamoylmethoxy)benzylamino]-4-hydroxy-α-(tert.butylaminomethyl)benzylalcohol]	10 mg/kg	0.01 mg/kg	0.1 mg/kg	10	20 mg/kg	> 1000 mg/kg						
CC(C)(C)NCC(O)c1ccc(O)c(NCc2cccc(O)c2)c1 (stereo not drawn) [3-(3-hydroxybenzylamino)-4-hydroxy-α-(tert.butylaminomethyl) benzylalcohol]	10 mg/kg	0.01 mg/kg	0.025 mg/kg	2.5	20 mg/kg	≥ 2000 mg/kg						
COc1cc(CNc2cc(C(O)CNC(C)(C)C)ccc2O)ccc1O.Cl (stereo not drawn) [3-(3-Methoxy-4-hydroxybenzylamino)-4-hydroxy-α-(tert.butylaminomethyl)-benzylalcohol hydrochloride]		0.02 mg/kg	0.05 mg/kg	2.5	10 to 30 mg/kg	> 2000 mg/kg						
CC(C)(C)NCC(O)c1cc(O)cc(O)c1 (centres unmarked) [Terbutaline, reference compound]	10 mg/kg	0.03 mg/kg	0.3 mg/kg	10	40 mg/kg	> 2000 mg/kg						
CCOc1ccc(CNc2cc(C(O)CNC(C)(C)C)ccc2O)cc1.Cl (stereo not drawn) [3-(4-Ethoxybenzylamino)-4-hydroxy-α-(tert.butylaminomethyl)benzylalcohol hydrochloride]	5 mg/kg	0.01 mg/kg	0.1 mg/kg	10	20 mg/kg	400 mg/kg						
CC(C)(C)NCC(O)c1ccc(O)c(NC(=O)c2cccc([N+](=O)[O-])c2)c1.Cl (stereo not drawn) [3-(3-Nitrobenzamido)-4-hydroxy-α-(tert.butylaminomethyl)benzylalcohol hydrochloride]		0.3 mg/kg			60 mg/kg	> 2000 mg/kg						
CC(C)NCC(O)c1ccc(O)c(O)c1 (centres unmarked) [Isoprenaline, reference compound]		0.005 mg/kg	0.0003 mg/kg									
CC(C)(C)NCC(O)c1ccc(O)c(NC(=O)c2ccc([N+](=O)[O-])cc2)c1.Cl (stereo not drawn) [3-(4-nitrobenzamido)-4-hydroxy-α-(tert.butylaminomethyl)benzylalcohol hydrochloride]	10 mg/kg	0.1 mg/kg	> 1 mg/kg	> 10	40 mg/kg	> 2000 mg/kg						
CN(C)c1ccc(CNc2cc(C(O)CNC(C)(C)C)ccc2O)cc1.Cl (stereo not drawn) [3-(4-Dimethylaminobenzylamino)-4-hydroxy-α-(tert.butylaminomethyl)benzylalcohol hydrochloride]		0.02 mg/kg	≥ 0.1 mg/kg	≥ 5	20 mg/kg	700 mg/kg						
COc1ccc(CNc2cc(C(O)CNC(C)(C)C)ccc2O)cc1.Cl (stereo not drawn) [3-(4-Methoxybenzylamino)-4-hydroxy-α-(tert.butylaminomethyl)-benzylalcohol hydrochloride]	1 mg/kg	0.003 mg/kg	0.1 mg/kg	33	20 mg/kg	300 mg/kg	10 times	the heart rate stimulating effect was the same	a better ratio than salbutamol	good tolerability	good tolerability	no toxic reactions
CC(C)(C)NCC(O)c1ccc(O)c(NC(=O)c2cc(O)cc(O)c2)c1.Cl (stereo not drawn) [3-(3,5-Dihydroxybenzamido)-4-hydroxy-α-(tert.butylaminomethyl)-benzylalcohol hydrochloride]	20 mg/kg	0.3 mg/kg			20 mg/kg	> 2000 mg/kg						
CC(C)(C)NCC(O)c1ccc(O)c(NCc2ccc(O)cc2)c1.Cl (stereo not drawn) [3-(4-Hydroxybenzylamino)-4-hydroxy-α-(tert.butylaminomethyl)benzylalcohol hydrochloride]	10 mg/kg	0.01 mg/kg	0.07 mg/kg	7	20 mg/kg	> 2000 mg/kg						
COc1ccc(C(=O)Nc2cc(C(O)CNC(C)(C)C)ccc2O)cc1.Cl (stereo not drawn) [3-(4-methoxybenzamido)-4-hydroxy-α-(tert.butylaminomethyl)benzylalcohol hydrochloride]	10 mg/kg	0.1 mg/kg	> 1 mg/kg	> 10	80 mg/kg	> 2000 mg/kg			the same ratio between bronchospasmolytic dose and tremor-inducing dose as salbutamol			
CC(C)Oc1ccc(CNc2cc(C(O)CNC(C)(C)C)ccc2O)cc1.Cl (stereo not drawn) [3-(4-Isopropoxybenzylamino)-4-hydroxy-α-(tert.butylaminomethyl)-benzylalcohol hydrochloride]		0.03 mg/kg	0.1 mg/kg	3.3	20 mg/kg	400 mg/kg						
Cc1ccc(CNc2cc(C(O)CNC(C)(C)C)ccc2O)cc1.Cl (stereo not drawn) [3-(4-Methylbenzylamino)-4-hydroxy-α-(tert.butylaminomethyl)benzylalcohol hydrochloride]		0.07 mg/kg			20 mg/kg	700 mg/kg						
CC(C)NCC(O)c1ccc(O)c(NS(C)(=O)=O)c1 (centres unmarked) [Soterenol, reference compound]		0.02 mg/kg	0.04 mg/kg	2	60 mg/kg	750 mg/kg						
COc1ccc(CNc2cc(C(O)CNC(C)(C)C)ccc2O)cc1OC.Cl (stereo not drawn) [3-(3,4-Dimethoxybenzylamino)-4-hydroxy-α-(tert.butylaminomethyl)benzylalcohol hydrochloride]	10 mg/kg	0.01 mg/kg	0.09 mg/kg	9	20 mg/kg	> 2000 mg/kg						
CC(C)NCC(O)c1cc(O)cc(O)c1 (centres unmarked) [Orciprenaline, reference compound]		0.1 mg/kg	0.01 mg/kg									
CC(C)(C)NCC(O)c1ccc(O)c(NC(=O)c2ccc(Cl)cc2)c1.Cl (stereo not drawn) [3-(4-Chlorobenzamido)-4-hydroxy-α-(tert.butylaminomethyl)benzylalcohol hydrochloride]		0.5 mg/kg			60 mg/kg	> 2000 mg/kg						
CC(C)(C)NCC(O)c1ccc(O)c(CO)c1 (centres unmarked) [Saloutamol, salbutamol, reference compound]	5 mg/kg	0.01 mg/kg	0.1 mg/kg									
